From patent publication US7709516B2, “Helix 12 directed non-steroidal antiandrogens” (Endorecherche, Inc., priority 2005, dated 2010)
pIC50: −log10 of the molar value. Where two headings read alike, the source gives them in different places.

Columns and labels:
[1] = tested on: rat prostate, seminal vesicle, levator ani muscle; assay: Systemic antiandrogenic activity in orchidectomized immature male rats with DHT implant; type: in vivo; conditions: Rattus norvegicus, 168 h, rat +DHT, 0.5 mg/animal daily 7 days
[2] = tested on: Shionogi mouse mammary carcinoma cells; assay: Androgenic/antiandrogenic activity: inhibition of DHT-stimulated Shionogi cell number; type: cell-based; conditions: Mus musculus, DHT-stimulated Shionogi cell number
[3] = biological target: T1, Human Androgen Receptor (Homo sapiens, UniProt P10275); assay: Androgen receptor binding assay ([3H]R1881, HAP) in cytosol of HEK-293 cells transfected with hAR; conditions: relative to R1881 = 100, transfected cells
T1 sequence (P10275 1-920): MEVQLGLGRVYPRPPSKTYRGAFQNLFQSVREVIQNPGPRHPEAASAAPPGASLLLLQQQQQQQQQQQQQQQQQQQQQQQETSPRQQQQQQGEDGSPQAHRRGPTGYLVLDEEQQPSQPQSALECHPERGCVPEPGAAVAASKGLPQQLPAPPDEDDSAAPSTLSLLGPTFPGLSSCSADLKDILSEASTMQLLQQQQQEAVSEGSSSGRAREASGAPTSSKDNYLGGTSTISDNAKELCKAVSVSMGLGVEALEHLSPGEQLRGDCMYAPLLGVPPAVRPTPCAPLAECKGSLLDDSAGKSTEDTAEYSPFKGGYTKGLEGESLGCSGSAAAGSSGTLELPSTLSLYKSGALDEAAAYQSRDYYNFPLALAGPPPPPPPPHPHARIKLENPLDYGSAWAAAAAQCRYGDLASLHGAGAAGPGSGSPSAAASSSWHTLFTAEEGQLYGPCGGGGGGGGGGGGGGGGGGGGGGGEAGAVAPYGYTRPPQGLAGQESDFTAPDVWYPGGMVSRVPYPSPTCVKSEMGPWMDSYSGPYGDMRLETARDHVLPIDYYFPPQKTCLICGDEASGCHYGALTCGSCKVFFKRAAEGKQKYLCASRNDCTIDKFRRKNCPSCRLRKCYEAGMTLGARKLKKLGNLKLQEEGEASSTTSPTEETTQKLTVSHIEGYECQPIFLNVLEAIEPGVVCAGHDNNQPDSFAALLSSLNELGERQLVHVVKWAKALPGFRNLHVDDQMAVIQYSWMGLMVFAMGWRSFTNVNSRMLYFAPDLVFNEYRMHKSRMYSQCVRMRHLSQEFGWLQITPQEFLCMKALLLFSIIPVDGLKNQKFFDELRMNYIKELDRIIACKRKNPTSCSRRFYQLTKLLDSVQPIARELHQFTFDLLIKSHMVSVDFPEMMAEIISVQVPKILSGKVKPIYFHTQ

[4] = read-out: Lev Ani % inhibition, Table 1, s.c. or p.o. (route not marked), levator ani
[5] = read-out: Prostate % inhibition, Table 1, s.c. or p.o. (route not marked in cell)
[6] = read-out: SV % inhibition, Table 1, s.c. or p.o. (route not marked), seminal vesicle
[7] = read-out: Shionogi Antiandrogenic Activity IC50, Table 1
[8] = read-out: Lev Ani % inhibition, Table 2, s.c. or p.o. (route not marked), levator ani
[9] = read-out: Prostate % inhibition, Table 2, s.c. or p.o. (route not marked)
[10] = read-out: SV % inhibition, Table 2, s.c. or p.o. (route not marked), seminal vesicle
[11] = read-out: Shionogi Antiandrogenic Activity IC50, Table 2
[12] = Prostate cell, po, read-out: Lev Ani % inhibition, Table 1, p.o, levator ani
[13] = Prostate cell, po, read-out: SV % inhibition, Table 1, p.o, seminal vesicle
[14] = po, read-out: Prostate % inhibition, Table 1, p.o

Compound | inhibition in vivo at 0.5 mg [1, 4] | inhibition in vivo at 0.5 mg [1, 5] | inhibition in vivo at 0.5 mg [1, 6] | pIC50 [2, 7] | Human Androgen Receptor Binding (%) RBA R1881 = 100 ([3]; Table 1) | inhibition in vivo at 0.5 mg [1, 8] | inhibition in vivo at 0.5 mg [1, 9] | inhibition in vivo at 0.5 mg [1, 10] | pIC50 [2, 11] | Human Androgen Receptor Binding (%) RBA R1881 = 100 ([3]; Table 2) | inhibition in vivo at 0.5 mg [1, 12] | inhibition in vivo at 0.5 mg [1, 13] | inhibition in vivo at 0.5 mg [1, 14]
CN(C)Cc1ccc(OCCCN2C(=S)N(c3ccc(C#N)c(C(F)(F)F)c3)C(=O)C2(C)C)cn1 [EM-7927] | 61% | 32% | 55% | 8.16 | 2.4% | – | – | – | – | – | – | – | –
COc1cc(CNC(C)C)ccc1OCCCN1C(=S)N(c2ccc(C#N)c(C(F)(F)F)c2)C(=O)C1(C)C [EM-7930] | 41% | 47% | 71% | 8.02 | 0.5% | – | – | – | – | – | – | – | –
CC(C)NS(=O)(=O)c1ccc(OCCCN2C(=S)N(c3ccc(C#N)c(C(F)(F)F)c3)C(=O)C2(C)C)cc1 [EM-7957] | 75% | 44% | 72% | 7.75 | 5.9% | – | – | – | – | – | – | – | –
CCC(c1ccc(OCCC2(O)CCN(c3ccc(C#N)c(C(F)(F)F)c3)CC2)c(C)c1)N1CCCC1 (stereo not drawn) [EM-8003] | – | – | – | – | – | 44% | 11% | 35% | 7.65 | 6.4% | – | – | –
CCC(CC)NC(CC)c1ccc(OCCC2(O)CCN(c3ccc(C#N)c(C(F)(F)F)c3)CC2)c(C)c1 (stereo not drawn) [EM-8006] | – | – | – | – | – | 40% | 14% | 32% | 7.51 | 8.1% | – | – | –
CC1(C)C(=O)N(c2ccc(C#N)c(C(F)(F)F)c2)C(=S)N1CCCOc1ccc(S(C)(=O)=O)cc1 [EM-8056] | – | – | – | 7.92 | 6.7% | – | – | – | – | – | 80% | 91% | 49%
N#Cc1ccc(N2CCC(O)(CCOc3ccc(-c4cccnc4)c(CN4CCCC4)c3)CC2)cc1C(F)(F)F [EM-8058] | – | – | – | – | – | 6% | 0% | 2% | 7.25 | 1.5% | – | – | –
N#Cc1ccc(N2CCC(O)(CCOc3cccc(CN4CCCC4)c3)CC2)cc1C(F)(F)F [EM-8059] | – | – | – | – | – | 0% | 1% | 21% | 7.16 | 1.0% | – | – | –
CC1(C)C(=O)N(c2ccc(C#N)c(C(F)(F)F)c2)C(=S)N1CCCOc1ccc(-n2ccnc2)cc1 [EM-8062] | – | – | – | 8.18 | 15.6% | – | – | – | – | – | 63% | 79% | 37%
CCCC(c1ccc(OCCC2(O)CCN(c3ccc(C#N)c(C(F)(F)F)c3)CC2)cc1)N1CCCC1 (stereo not drawn) [EM-8096] | – | – | – | – | – | 50% | 8% | 55% | 7.71 | 6.9% | – | – | –
CC(=O)Nc1ccc(OCCCN2C(=S)N(c3ccc(C#N)c(C(F)(F)F)c3)C(=O)C2(C)C)cc1 [EM-8101] | – | – | – | 7.74 | 12.1% | – | – | – | – | – | 43% | 41% | 8%
CC1(C)C(=O)N(c2ccc(C#N)c(C(F)(F)F)c2)C(=S)N1CCCOc1ccc(S(=O)(=O)N2CCCC2)cc1 [EM-8103] | – | – | – | 7.38 | 29.3% | – | – | – | – | – | 16% | 37% | 18%
N#Cc1ccc(N2CCC(O)(CCOc3ccc(S(=O)(=O)N4CCCC4)cc3)CC2)cc1C(F)(F)F [EM-8130] | – | – | – | – | – | 8% | 15% | 20% | 7.55 | 4.5% | – | – | –
CC(C)S(=O)(=O)c1ccc(OCCCN2C(=S)N(c3ccc(C#N)c(C(F)(F)F)c3)C(=O)C2(C)C)cc1 [EM-8131] | – | – | – | 8.04 | 9.3% | – | – | – | – | – | 47% | 84% | 47%
CC(C)Sc1ccc(OCCCN2C(=S)N(c3ccc(C#N)c(C(F)(F)F)c3)C(=O)C2(C)C)cc1 [EM-8132] | – | – | – | 7.62 | 1.0% | – | – | – | – | – | 67% | 86% | 47%
CC1(C)C(=O)N(c2ccc(C#N)c(C(F)(F)F)c2)C(=S)N1CCCOc1ccc2c(c1)OCC2=O [EM-8154] | – | – | – | 7.77 | 72.4% | – | – | – | – | – | 41% | 42% | 11%
CC1(C)C(=O)N(c2ccc(C#N)c(C(F)(F)F)c2)C(=S)N1CCCOc1ccc(C(N)=O)cc1 [EM-8156] | – | – | – | 8.10 | 17.5% | – | – | – | – | – | 47% | 65% | 32%
COC1(CCOc2ccc(CN3CCCC3)cc2C)CCN(c2ccc(C#N)c(C(F)(F)F)c2)CC1 [EM-8157] | – | – | – | – | – | 28% | 25% | 56% | 7.27 | <1.0% | – | – | –
CC1(C)C(=O)N(c2ccc(C#N)c(C(F)(F)F)c2)C(=S)N1CCCOc1ccc2oc(=O)ccc2c1 [EM-8158] | – | – | – | 8.46 | 88.8% | – | – | – | – | – | 32% | 70% | 38%
CS(=O)(=O)c1ccc(OCCC2(O)CCN(c3ccc(C#N)c(C(F)(F)F)c3)CC2)cc1 [EM-8159] | – | – | – | – | – | 23% | 24% | 51% | 7.48 | <1.0% | – | – | –
CCS(=O)(=O)c1ccc(OCCCN2C(=S)N(c3ccc(C#N)c(C(F)(F)F)c3)C(=O)C2(C)C)cc1 [EM-8188] | – | – | – | 7.86 | 15.6% | – | – | – | – | – | 68% | 85% | 45%
